{
  "source": "patent US20250268876A1",
  "about": "“TREATMENT OF HIDRADENITIS SUPPURATIVA WITH ORISMILAST” (UNION THERAPEUTICS A/S, priority 2021, published 2025)",
  "key": {"PDE4A1": {"target": "PDE4A1 (Homo sapiens, UniProt P27815)", "sequence (P27815 1-647 isoform P27815-4)": "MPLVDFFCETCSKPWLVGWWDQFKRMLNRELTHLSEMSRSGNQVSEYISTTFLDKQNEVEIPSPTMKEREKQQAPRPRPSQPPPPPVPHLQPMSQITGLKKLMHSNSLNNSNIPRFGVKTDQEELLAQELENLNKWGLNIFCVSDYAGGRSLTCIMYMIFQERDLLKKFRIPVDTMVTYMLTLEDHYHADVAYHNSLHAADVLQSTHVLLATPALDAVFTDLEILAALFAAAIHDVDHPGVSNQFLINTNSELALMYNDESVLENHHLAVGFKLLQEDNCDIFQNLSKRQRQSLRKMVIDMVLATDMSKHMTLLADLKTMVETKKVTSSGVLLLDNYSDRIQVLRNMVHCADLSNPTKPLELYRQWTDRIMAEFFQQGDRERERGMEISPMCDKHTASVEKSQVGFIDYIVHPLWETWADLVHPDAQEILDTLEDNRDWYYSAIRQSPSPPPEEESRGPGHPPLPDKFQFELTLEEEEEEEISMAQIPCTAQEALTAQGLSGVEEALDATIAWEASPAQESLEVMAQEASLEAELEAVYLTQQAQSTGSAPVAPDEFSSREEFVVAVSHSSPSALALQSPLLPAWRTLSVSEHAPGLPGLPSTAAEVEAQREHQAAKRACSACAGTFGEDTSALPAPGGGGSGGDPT", "test": "biochemical"}, "[1]": {"system": "Hidradenitis suppurativa (HS)", "test": "Phase 2a open-label trial of orismilast in HS patients", "format": "in vivo, human", "details": "for IHS4: Baseline 65; for VAS pain: Baseline 9; for DLQI: Baseline 25; for HiSQOL: Baseline 54", "source_text": "The following clinical trial may be performed using the compound of formula (I). Suitably the compound of formula (I) is orally administered to a subject in the form of a modified release composition, for example a modified release formulation described in WO 2020/148271, or as a composition described in Example 1 above. […] This is a phase 2, single-centre, prospective, open-label, single-arm, exploratory clinical trial assessing the efficacy and safety of orismilast in patients with mild, moderate, or severe HS as defined by the IHS4 scores: […] Eligible patients will receive treatment with orismilast tablets twice daily for 16 weeks. The treatment dose will be according to a predefined titration scheme and adapted to the observed tolerance of each patient. Treatment phase: […] Telephone consultation], and Week 2 [Visit 4]) (“BID” means bis in die, i.e. twice per day). Assessment of treatment efficacy will be undertaken using: • 1. Investigator assessments: • a. Counts of abscess, inflammatory nodule, and draining fistula at each on site visit day. • b. International Hidradenitis Suppurativa Severity Score System (IHS4) at each on site visit day. • c. Physician's Global Assessment of disease severity (HS-PGA) at each on site visit day. • 2. Patient assessments • a. Patients' Global Assessment of disease severity at Screening, Baseline, Week 2 (Visit 4), Week 8 (Visit 6), Week 12 (Visit 7), Week 16 (EoT, Visit 8), FU (Visit 9), and EoS (Visit 10). • b. Completion of questionnaires covering skin related quality of life DLQI at Screening, Baseline, Week 2 (Visit 4), Week 8 (Visit 6), Week 12 (Visit 7), Week 16 (EoT), FU, and EoS. • c. Completion of questionnaires covering HS specific quality of life (HiSQOL) at Screening, Baseline, Week 2 (Visit 4), Week 8 (Visit 6), Week 12 (Visit 7), Week 16 (EoT), FU, and EoS. • d. Completion of questionnaire covering skin pain (Patient's Global Assessment of Skin Pain) at each visit day. • e. Completion of questionnaire covering impact on work productivity (WPAI), anxiety and depression (HADS), fatigue (MFI-20), quality of life (EQ-5D), and McGill Pain questionnaire at Baseline, Week 16 (EoT), and EoS. • Counts of abscess, inflammatory nodule, and draining fistula. The lesions are defined in a Pan-European consensus paper ([…] et al., Dermatology. 2020; 236(5):431-438). […] An abscess is defined as a palpable lesion, with liquid content (pus), fluctuant, soft on palpation, diameter >10 mm, usually deep seated; acute, very painful phenomenon. […] A treatment target based on correlation between the changes in lesion counts and PROM (pain and HRQoL). Hidradenitis Suppurativa Clinical Response (HiSCR; a […] reduction from baseline in abscess and inflammatory nodule count and no increase in abscess or draining fistula counts) (Kimball et al., Ann Intern Med. 2012 Dec. 18; 157(12):846-55; Kimball et al., J Eur Acad Dermatol Venereol. 2016 June; 30(6):989-94). Subsequently modified for further differentiation: HiSCR75; a ≥75% reduction from baseline in abscess and inflammatory nodule count and no increase in abscess or draining fistula counts) and HiSCR-90; a ≥90% reduction from baseline in abscess and inflammatory nodule count and no increase in abscess or draining fistula counts) • International Hidradenitis Suppurativa Severity Score System (IHS4): […] The score is based on a count of inflamed lesions. The resulting IHS4 score is arrived at by the number of nodules (multiplied by 1) plus the number of abscesses (multiplied by 2) plus the number of draining tunnels (multiplied by 4). […] The six-point hidradenitis suppurativa Physician Global Assessment (PGA) ranges from clear to very severe (Kimball et al., Ann Intern Med. 2012 Dec. 18; 157(12):846-55). It is used in clinical trials to measure clinical improvement in inflammatory nodules, abscesses, and draining fistulae. The six stages are; • Clear: No inflammatory or non-inflammatory nodules. • Minimal: Only the presence of non-inflammatory nodules. • Mild: […]"}, "[2]": {"system": "TNF-α release from human peripheral blood mononuclear cells", "test": "TNF-α release, serum-free, hPBMC, LPS", "format": "cell-based", "details": "PBMC, 18 hours", "procedure": "TNF-α, Serumfree, hPBMC, LPS\nCultures of human PBMC isolated from buffy coats were stimulated with lipopolysaccharide to activate the monocytes and to release TNF-α. PBMC were isolated from fresh buffy coats and frozen for later use. On the assay day, cells were thawed, washed in serum free medium (RPMI1640 with 25 mM HEPES, 1% pen/strep, […] L glutamine and 0.5% human serum albumin) and living cells were counted. Test compounds were diluted in DMSO and further diluted in serum-free medium and pipetted into wells of 384 well tissue culture plates. LPS was added to the cells which shortly thereafter were added to the wells with titrated test compounds and incubated for 18 hours at 37° C. The next day, the level of TNF-α in the culture supernatant was quantitated by homogenous time-resolved fluorescence (HTRF) where FRET was measured at 665 nm and normalized to the fluorescence of europium cryptate at 620 nm. The effect (inhibition of TNF-α release) of a test compound was calculated using equation 1: […]\nFluorescence intensities, measured at 665 nm and 620 nm, were used to calculate the 665/620 ratio as an estimate of the level of secreted TNF-α. Sx denotes the 665/620 ratio associated with the test compound. So and Sc denote the 665/620 ratios associated with 0.1% DMSO and 1E-05 M compound (II), respectively.\nThis model describes a sigmoidal curve with an adjustable baseline, a. […]"}, "[3]": {"target": "human recombinant PDE4D protein (Homo sapiens, UniProt Q08499)", "sequence (Q08499 whole entry)": "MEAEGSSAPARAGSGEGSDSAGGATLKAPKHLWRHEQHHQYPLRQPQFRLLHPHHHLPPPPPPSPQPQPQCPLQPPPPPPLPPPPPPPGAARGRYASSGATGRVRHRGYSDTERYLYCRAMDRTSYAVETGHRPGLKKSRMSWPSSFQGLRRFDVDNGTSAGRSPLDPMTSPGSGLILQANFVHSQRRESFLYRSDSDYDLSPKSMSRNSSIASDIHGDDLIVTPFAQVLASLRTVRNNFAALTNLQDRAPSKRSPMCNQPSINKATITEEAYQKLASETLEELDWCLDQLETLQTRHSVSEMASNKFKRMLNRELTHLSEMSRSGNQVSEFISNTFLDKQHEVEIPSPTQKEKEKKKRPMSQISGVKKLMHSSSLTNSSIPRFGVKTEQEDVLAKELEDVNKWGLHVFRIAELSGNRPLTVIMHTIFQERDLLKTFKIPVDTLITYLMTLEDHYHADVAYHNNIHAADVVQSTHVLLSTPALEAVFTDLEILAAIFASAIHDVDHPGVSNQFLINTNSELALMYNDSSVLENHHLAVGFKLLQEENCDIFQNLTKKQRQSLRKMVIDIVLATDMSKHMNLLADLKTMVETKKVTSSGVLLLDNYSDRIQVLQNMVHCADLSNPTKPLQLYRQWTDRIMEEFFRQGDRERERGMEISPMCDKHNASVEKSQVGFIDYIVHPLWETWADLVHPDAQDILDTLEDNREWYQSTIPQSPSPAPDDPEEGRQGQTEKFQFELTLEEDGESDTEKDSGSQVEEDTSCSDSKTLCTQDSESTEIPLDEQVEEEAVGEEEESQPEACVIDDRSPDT", "test": "PDE4D scintillation proximity assay (SPA)", "format": "biochemical", "details": "purified human recombinant PDE4D", "procedure": "PDE4 enzymatic activity was measured in a scintillation proximity assay using purified human recombinant PDE4D protein."}},
  "note": "pEC50, pIC50: −log10 of the molar value.",
  "data": [
    {"smiles": "O=C(Cc1c(Cl)c[n+]([O-])cc1Cl)c1ccc(OC(F)F)c2c1OC1(CCS(=O)(=O)CC1)O2", "note": "[Compound (I), 2-(3,5-Dichloro-1-oxido-pyridine-4-yl)-1-(7-difluoro-methoxy-2′,3′,5′,6′-tetrahydro-spiro[1,3-benzodioxole-2,4′-(4H)-thiopyran-1′,1′-dioxide]-4-yl)ethanone]", "values": [
      {"measurement": "pIC50", "setting": "PDE4A1", "value": 7.80},
      {"measurement": "clinical response (in words)", "setting": "[1]; first four HS patients enrolled, trial ongoing", "value": "initial signs of improvement in HS"},
      {"measurement": "clinical response (in words)", "setting": "[1]; one patient refractory to conventional HS therapies", "value": "immediate clinical improvement with reduction of tissue edema and pain, as well as increased mobility"},
      {"measurement": "IHS4", "setting": "[1]; one patient, severe HS, Day 14, 10 to 30 mg twice daily", "value": 61},
      {"measurement": "VAS pain", "setting": "[1]; one patient, Day 14", "value": 7},
      {"measurement": "DLQI", "setting": "[1]; one patient, Day 14", "value": 23},
      {"measurement": "HiSQOL", "setting": "[1]; one patient, Day 14", "value": 42},
      {"measurement": "VAS pain", "setting": "[1]; one patient, Day 57", "value": 6},
      {"measurement": "DLQI", "setting": "[1]; one patient, Day 57", "value": 22},
      {"measurement": "HiSQOL", "setting": "[1]; one patient, Day 57", "value": 46},
      {"measurement": "IHS4", "setting": "[1]; one patient, Day 57, 30 mg twice daily", "value": 62},
      {"measurement": "thrombocytes", "setting": "[1]; one patient, at day 14, baseline 402", "value": 365},
      {"measurement": "patient's global assessment", "setting": "[1]; one patient, day 15", "value": "very severe"},
      {"measurement": "patient's global assessment", "setting": "[1]; one patient, day 57", "value": "severe"},
      {"measurement": "leukocytes", "setting": "[1]; one patient, day 57, baseline 14.0", "value": 11.5},
      {"measurement": "C-reactive protein", "setting": "[1]; one patient, day 57, baseline 89", "value": 84},
      {"measurement": "erythrocyte sedimentation rate", "setting": "[1]; one patient, day 57, baseline 94", "value": 88},
      {"measurement": "physician's global assessment of disease activity", "setting": "[1]; one patient, during treatment to day 57", "value": "very severe"},
      {"measurement": "pEC50", "setting": "[2]", "value": 7.94},
      {"measurement": "Emax", "setting": "[2]", "value": 102, "unit": "%"},
      {"measurement": "pEC50", "setting": "[3]", "value": 7.83}
    ]}
  ]
}
